Measurements as given in US20080221548A1, “Eradication of Pigmentation and Scar Tissue” (priority 2005, published 2008).

Assays:
[1] = Experiment 1: removal of tattoo pigmentation with different solutions while puncturing the skin; assay type: in vivo, pig
Protocol: A number of tattoos were applied to the skin of a pig. Each of the tattoos was a square having dimensions approximately 1 cm×1 cm filled with a solid blue-grey color. […] FIG. 3 is a reproduction of a photograph taken 14 days after four of these tattooed areas were treated according to the method of the invention using different types of solution. Square 1 was treated using distilled water and essentially no color reduction was observed. Square 2 was treated using a 2% aqueous solution of salicylic acid. […] Square 3 was treated using a solution containing 17% EDTA.

[2] = Experiment 2: treatment of tattooed squares by skin puncturing with salicylic acid rinse; assay type: in vivo, pig; settings: 5% aqueous solution of salicylic acid, 10 cc/cm^2, three minutes puncturing, five squares; eighteen days later
Protocol: A number of tattoos were applied to the skin of a pig. Each of the tattoos was a square having dimensions approximately 1 cm×1 cm filled with a solid blue-grey color. Two months after the tattoos were applied each of the five squares labeled 1 to 5 on the photograph shown in FIG. 4A was treated according to the method of the invention. The treatment for each square consisted of repeatedly puncturing the skin with the device described hereinabove for three minutes. As the machine was operated, the needles and skin surface were cyclically rinsed with a 5% aqueous solution of salicylic acid. A total of 10 cc of solution was used for each square (i.e. 10 cc/cm^2). Following this initial treatment no further treatment was applied to these five locations.

[3] = Experiment 3: treatment of a pigmented area of skin surrounding a scab by skin puncturing with salicylic acid rinse; assay type: in vivo; settings: 5% aqueous solution of salicylic acid, ~10 cc/cm^2, ten minutes puncturing; fourteen days after treatment
Protocol: In FIG. 5A is shown a photograph of an area of skin on which there is a reddish-purple pigmented area surrounding brown colored scab. The pigmented area surrounding the scab was treated using the method described above by repeatedly puncturing the skin for ten minutes. During the treatment 10 cc of a 5% aqueous solution of salicylic acid (˜10 cc/cm^2) was used to clean the needles and surface of the skin. A dry bandage was placed over the treated area for a few days to keep the site clean, but no medication was applied. After this the skin was left unattended. […] Although embodiments of the invention have been described by way of illustration, it will be understood that the invention may be carried out with many variations, modifications, and adaptations, without departing from its spirit or exceeding the scope of the claims.

## O=C(O)CN(CCN(CC(=O)O)CC(=O)O)CC(=O)O [EDTA]
[1]; solution containing 17% EDTA, square 3
  scar after treatment: did not vanish
[1]; solution containing 17% EDTA, tattoo square 3, 14 days after treatment
  color reduction: 60%

## OO [H2O2]
[1]; H2O2, tattoo square 4, 14 days after treatment
  reduction in color: 40-60%

## O=C(O)c1ccccc1O [salicylic acid]
[1]; 2% aqueous solution of salicylic acid, 1 cm x 1 cm blue-grey tattoo square 2, 14 days after treatment plus a few days
  color reduction: approximately 90%
[1]; 2% aqueous solution of salicylic acid, square 2, a few days after the 14-day photograph
  scar after treatment: vanished leaving no trace
[2]
  tattoo color after treatment: all of the original blue-grey color has disappeared
[3]
  color of the pigmented area after treatment: changed to a color slightly greyer than the natural skin color
  scar tissue after treatment: gone
